The values below come from patent publication US11866430B2, “Naphthyridinone compounds useful as T cell activators” (priority 2018, dated 2024).

Where two headings read alike, the source gives them in different places.

Test [1] concerns pre-activated CD4 T cells and Raji cells. The test can be described thus: Raji CD4 T Cell IL2 Assay. Type of test: cell-based.
The next test has as its target human DGKα (Homo sapiens (Human), UniProt P23743). The experiment in a line: biochemical. As to conditions: detergent/lipid micelle substrate; read-out: DGKα IC50. How it is done: (§1) The DGKα and DGKζ reactions were performed using either extruded liposome (DGKα and DGKζ LIPGLO assays) or detergent/lipid micelle substrate (DGKα and DGKζ assays). The reactions were carried out in 50 mM MOPS pH 7.5, 100 mM NaCl, 10 mM MgCl2, 1 μM CaCl2, and 1 mM DTT (assay buffer). The reactions using a detergent/lipid micelle substrate also contained 50 mM octyl B-D-glucopyranoside. […] The lipid substrate concentrations were […], 0.25 mM DAG, and 2.75 mM PC for the extruded liposome reactions.
(§2) The compound inhibition studies were carried out as follows: 50 nL droplets of each test compound (top concentration 10 mM with 11 point, 3-fold dilution series for each compound) solubilized in DMSO were transferred to wells of a white 1536 well plate (Corning 3725). A 5 mL enzyme/substrate solution at 2× final reaction concentration was prepared by combining 2.5 mL 4× enzyme solution (20 nM DGKα or DGKζ (prepared as described below) in assay buffer) and 2.5 mL of either 4× liposome or 4× detergent/lipid micelle solution (compositions described below) and incubated at room temperature for 10 minutes. Next, 1 μL 2× enzyme/substrate solution was added to wells containing the test compound and reactions were initiated with the addition of 1 μL 300 uM ATP. The reactions were allowed to proceed for 1 hr, after which 2 μL Glo Reagent (Promega V9101) was added and incubated for 40 minutes. Next, 4 μL Kinase Detection Reagent was added and incubated for 30 minutes. Luminescence was recorded using an EnVision microplate reader. […] The compounds were evaluated at 11 concentrations to determine IC50.
(§3) The detergent/lipid micelle was prepared by combining 15 g phosphatidylserine (Avanti 840035P) and 1 g diacylglycerol (800811O) and dissolving into 150 mL chloroform in a 2 L round bottom flask. Chloroform was removed under high vacuum by rotary evaporation. The resulting colorless, tacky oil was resuspended in 400 mL 50 mM MOPS pH 7.5, 100 mM NaCl, 20 mM NaF, 10 mM MgCl2, 1 μM CaCl2), 1 mM DTT, and 200 mM octyl glucoside by vigorous mixing. The lipid/detergent solution was split into 5 mL aliquots and stored at −80° C.
(§4) Human DGK-alpha-TVMV-His-pFBgate and human DCK-zeta-transcript variant-2-TVMV-His-pFBgate baculovirus samples were generated using the Bac-to-Bac baculovirus expression system (Invitrogen) according to the manufacturer's protocol. The DNA used for expression of DGK-alpha and DGK-zeta have SEQ ID NOs: 1 and 3, respectively. Baculovirus amplification was achieved using infected Sf9 cells at 1:1500 virus/cell ratios, and grown for 65 hours at 27° C. post-transfection.
(§5) The expression scale up for each protein was carried out in the Cellbag 50 L WAVE-Bioreactor System 20/50 from GE Healthcare Bioscience. 12 L of 2×10^6 cells/mL Sf9 cells (Expression System, Davis, Calif.) grown in ESF921 insect medium (Expression System) were infected with virus stock at 1:200 virus/cell ratios, and grown for 66-68 hours at 27° C. post-infection. The infected cell culture was harvested by centrifugation at 2000 rpm for 20 min 4° C. in a SORVALL® RC12BP centrifuge. The cell pellets were stored at −70° C. until purification.
(§6) Full length human DGKα and DGKζ, each expressed containing a TVMV-cleavable C-terminal Hexa-His tag sequence (SEQ ID NOs: 2 and 4, respectively) and produced as described above, were purified from Sf) baculovirus-infected insect cell paste. The cells were lysed using nitrogen cavitation method with a nitrogen bomb (Parr Instruments), and the lysates were clarified by centrifugation. […] The three steps column chromatography included nickel affinity resin capture (i.e. HisTrap FF crude, GE Healthcare), followed by size exclusion chromatography (i.e. HiLoad 26/600 Superdex 200 prep grade, GE Healthcare for DGK-alpha, and HiPrep 26/600 Sephacryl S 300_HR, GE Healthcare for DGK-zeta).

The next test has as its target human DGKζ (Homo sapiens (Human), UniProt Q13574). The test can be described thus: DGKζ assay (detergent/lipid micelle substrate). The format is biochemical. Particulars: detergent/lipid micelle substrate; read-out: DGKζ IC50. How it is done: as §1, §2, §3, §4, §5, §6

Chain of human DGKζ (Q13574 other isoform, or with tags, fused parts or gaps): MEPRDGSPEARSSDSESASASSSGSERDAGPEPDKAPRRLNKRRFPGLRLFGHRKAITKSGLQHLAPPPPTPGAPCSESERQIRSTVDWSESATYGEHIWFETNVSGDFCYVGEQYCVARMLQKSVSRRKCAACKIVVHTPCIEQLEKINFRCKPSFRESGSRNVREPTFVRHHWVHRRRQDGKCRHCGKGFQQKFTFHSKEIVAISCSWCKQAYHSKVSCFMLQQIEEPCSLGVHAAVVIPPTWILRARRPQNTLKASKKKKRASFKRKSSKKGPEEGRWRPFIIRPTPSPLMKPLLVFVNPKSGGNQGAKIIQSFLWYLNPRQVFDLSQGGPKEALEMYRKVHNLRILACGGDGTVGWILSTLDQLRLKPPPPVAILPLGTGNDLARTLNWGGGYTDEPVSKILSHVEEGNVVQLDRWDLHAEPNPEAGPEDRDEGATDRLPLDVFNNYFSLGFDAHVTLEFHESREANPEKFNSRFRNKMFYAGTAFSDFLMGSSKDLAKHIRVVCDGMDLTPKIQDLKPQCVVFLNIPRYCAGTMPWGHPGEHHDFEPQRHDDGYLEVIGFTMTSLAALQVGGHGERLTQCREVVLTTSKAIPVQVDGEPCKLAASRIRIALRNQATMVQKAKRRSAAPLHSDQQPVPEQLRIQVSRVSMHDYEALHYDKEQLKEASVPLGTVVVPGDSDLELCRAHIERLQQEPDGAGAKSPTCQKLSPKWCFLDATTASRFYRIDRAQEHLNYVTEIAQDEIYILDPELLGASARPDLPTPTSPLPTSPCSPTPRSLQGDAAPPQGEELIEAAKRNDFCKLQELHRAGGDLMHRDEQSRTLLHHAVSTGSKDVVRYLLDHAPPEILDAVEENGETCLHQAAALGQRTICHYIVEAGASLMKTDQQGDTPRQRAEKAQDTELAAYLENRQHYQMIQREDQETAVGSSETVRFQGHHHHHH
Chain of human DGKα (P23743 other isoform, or with tags, fused parts or gaps): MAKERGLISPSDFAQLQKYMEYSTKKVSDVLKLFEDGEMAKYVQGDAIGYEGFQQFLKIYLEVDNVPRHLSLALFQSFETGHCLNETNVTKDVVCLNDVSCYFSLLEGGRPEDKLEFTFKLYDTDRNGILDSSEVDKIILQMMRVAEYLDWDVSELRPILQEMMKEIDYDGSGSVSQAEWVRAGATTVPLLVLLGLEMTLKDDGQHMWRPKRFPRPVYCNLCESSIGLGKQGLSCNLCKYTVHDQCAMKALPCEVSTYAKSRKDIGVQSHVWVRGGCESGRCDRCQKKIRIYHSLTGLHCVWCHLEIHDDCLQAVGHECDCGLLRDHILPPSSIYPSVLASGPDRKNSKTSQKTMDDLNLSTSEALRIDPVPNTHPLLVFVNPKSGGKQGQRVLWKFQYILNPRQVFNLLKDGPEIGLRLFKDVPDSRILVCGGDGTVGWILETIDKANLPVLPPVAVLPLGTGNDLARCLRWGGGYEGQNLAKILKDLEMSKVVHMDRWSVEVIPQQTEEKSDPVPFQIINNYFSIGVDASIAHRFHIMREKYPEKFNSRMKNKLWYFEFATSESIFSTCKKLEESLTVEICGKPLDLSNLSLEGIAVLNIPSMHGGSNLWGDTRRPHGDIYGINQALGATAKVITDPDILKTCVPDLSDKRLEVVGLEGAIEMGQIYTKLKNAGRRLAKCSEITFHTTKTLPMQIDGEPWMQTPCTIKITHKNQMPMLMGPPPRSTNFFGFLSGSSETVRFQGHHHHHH

What is called IC50 is the concentration at which inhibition is half-maximal. Regarding `Cn1c(=O)c(C#N)c(N2CCN(C(c3ccc(F)cc3)c3ccccc3O)CC2)c2nc(Br)ccc21` (racemic) [Example 8, 6-bromo-4-{4-[(4-fluorophenyl)(2-hydroxyphenyl)methyl]piperazin-1-yl}-1-methyl-2-oxo-1,2-dihydro-1,5-naphthyridine-3-carbonitrile], in test [1] (Homo sapiens, Raji), the IC50 was found to be 0.091 µM.

For `COc1ccccc1C(c1ccc(F)cc1)N1CCN(c2c([N+](=O)[O-])c(=O)n(C)c3ccc(C#N)nc23)CC1` (racemic) [Example 18, 8-{4-[(4-fluorophenyl)(2-methoxyphenyl)methyl]piperazin-1-yl}-5-methyl-7-nitro-6-oxo-5,6-dihydro-1,5-naphthyridine-2-carbonitrile], the IC50 stood at 0.96 µM on human DGKα; 2.5 µM at human DGKζ; 0.023 µM in test [1] (Homo sapiens, Raji).

As to `C#CCn1c(=O)c(C#N)c(N2CCN(C(c3ccc(F)cc3)c3ccccc3O)CC2)c2nc(Br)ccc21` (racemic) [Example 105, 6-bromo-4-(4-((4-fluorophenyl)(2-hydroxyphenyl)methyl)piperazin-1-yl)-2-oxo-1-(prop-2-yn-1-yl)-1,2-dihydro-1,5-naphthyridine-3-carbonitrile], the values for the IC50 on human DGKα and on human DGKζ were 0.58 µM and 2.5 µM, respectively.

As to `C#CCn1c(=O)c([N+](=O)[O-])c(N2CCN(C(c3ccc(F)cc3)c3ccc(F)cc3O)CC2)c2nc(C#N)ccc21` (racemic) [Example 119, 8-(4-((4-fluoro-2-hydroxyphenyl)(4-fluorophenyl)methyl)piperazin-1-yl)-7-nitro-6-oxo-5-(prop-2-yn-1-yl)-5,6-dihydro-1,5-naphthyridine-2-carbonitrile], the IC50 on human DGKα was 0.97 µM; at human DGKζ, 0.19 µM.

Take `COc1cc(F)ccc1C(c1ccc(F)cc1)N1CCN(c2c([N+](=O)[O-])c(=O)n(C)c3ccc(C#N)nc23)CC1` (racemic) [Example 123, 8-(4-((4-fluoro-2-methoxyphenyl)(4-fluorophenyl)methyl)piperazin-1-yl)-5-methyl-7-nitro-6-oxo-5,6-dihydro-1,5-naphthyridine-2-carbonitrile]: the IC50 at human DGKα is 2.3 µM.

Take `C#CCn1c(=O)c([N+](=O)[O-])c(N2CCN(C(c3ccc(F)cc3)c3ccc(F)cc3OC)CC2)c2nc(C#N)ccc21` (racemic) [Example 126, 8-(4-((4-fluoro-2-methoxyphenyl)(4-fluorophenyl)methyl)piperazin-1-yl)-7-nitro-6-oxo-5-(prop-2-yn-1-yl)-5,6-dihydro-1,5-naphthyridine-2-carbonitrile]: the values for the IC50 on human DGKα and on human DGKζ were 6.1 µM and 0.33 µM, respectively.

Turning to `C#CCOc1ccccc1C(c1ccc(F)cc1)N1CCN(c2c(C#N)c(=O)n(C)c3ccc(Br)nc23)CC1` (single isomer, unassigned) [Example 6, 6-bromo-4-{4-[(4-fluorophenyl) [2-(prop-2-yn-1-yloxy)phenyl]methyl]piperazin-1-yl}-1-methyl-2-oxo-1,2-dihydro-1,5-naphthyridine-3-carbonitrile], the IC50 on human DGKα is 6.5 µM; on human DGKζ, more than 240 µM; in test [1] it was 0.82 µM.

As for `C#CCOc1ccccc1C(c1ccc(F)cc1)N1CCN(c2c(C#N)c(=O)n(C)c3ccc(Br)nc23)CC1` (single isomer, unassigned) [Example 7, 6-bromo-4-{4-[(4-fluorophenyl) [2-(prop-2-yn-1-yloxy)phenyl]methyl]piperazin-1-yl}-1-methyl-2-oxo-1,2-dihydro-1,5-naphthyridine-3-carbonitrile], the IC50 at human DGKα turned out to be 0.5 µM; at human DGKζ, 120 µM; in test [1] it was 0.075 µM.

Consider `Cn1c(=O)c(C#N)c(N2CCN(C(c3ccc(F)cc3)c3ccccc3O)CC2)c2nc(Br)ccc21` (single isomer, unassigned) [Example 9, 6-bromo-4-{4-[(4-fluorophenyl)(2-hydroxyphenyl)methyl]piperazin-1-yl}-1-methyl-2-oxo-1,2-dihydro-1,5-naphthyridine-3-carbonitrile], for which, in test [1], the IC50 is more than 100 µM.

Molecule `Cn1c(=O)c(C#N)c(N2CCN(C(c3ccc(F)cc3)c3ccccc3O)CC2)c2nc(Br)ccc21` (single isomer, unassigned) [Example 10, 6-bromo-4-{4-[(4-fluorophenyl)(2-hydroxyphenyl)methyl]piperazin-1-yl}-1-methyl-2-oxo-1,2-dihydro-1,5-naphthyridine-3-carbonitrile] yielded an IC50 in test [1] of 0.003 µM.

Take `Cn1c(=O)c(C#N)c(N2CCN(CC(O)c3ccc(F)cc3)CC2)c2nc(Br)ccc21` (single isomer, unassigned) [Example 29, 6-bromo-4-{4-[2-(4-fluorophenyl)-2-hydroxyethyl]piperazin-1-yl}-1-methyl-2-oxo-1,2-dihydro-1,5-naphthyridine-3-carbonitrile]: the IC50 at human DGKα was 0.57 µM; on human DGKζ, more than 240 µM; in test [1] it was 2.3 µM.

Regarding `Cn1c(=O)c(C#N)c(N2CCN(CC(O)c3ccc(F)cc3)CC2)c2nc(Br)ccc21` (single isomer, unassigned) [Example 30, 6-bromo-4-{4-[2-(4-fluorophenyl)-2-hydroxyethyl]piperazin-1-yl}-1-methyl-2-oxo-1,2-dihydro-1,5-naphthyridine-3-carbonitrile], the IC50 at human DGKα was determined as 1.8 µM; on human DGKζ, 140 µM; in test [1] it was 1.1 µM.

For the molecule `Cn1c(=O)c(C#N)c(N2CCN(C3CCc4cc(F)cc(O)c43)CC2)c2nc(Cl)ccc21` (stereo not drawn) [Example 201, 6-chloro-4-(4-(5-fluoro-7-hydroxy-2,3-dihydro-1H-inden-1-yl)piperazin-1-yl)-1-methyl-2-oxo-1,2-dihydro-1,5-naphthyridine-3-carbonitrile], the IC50 in test [1] (Homo sapiens, Raji) amounted to 22 µM.

For the molecule `Cn1c(=O)c(C#N)c(N2CCN(C(c3ccc(F)cc3)c3ccc(F)cc3O)CC2)c2nc(Cl)ccc21` (stereo not drawn) [Example 222, 6-chloro-4-(4-((4-fluoro-2-hydroxyphenyl)(4-fluorophenyl)methyl)piperazin-1-yl)-1-methyl-2-oxo-1,2-dihydro-1,5-naphthyridine-3-carbonitrile], the IC50 turned out to be 0.083 µM on human DGKα and 0.068 µM in test [1] (Homo sapiens, Raji).

For the molecule `Cc1ccc2c(n1)c(N1CCN(C(c3ccc(F)cc3)c3ccc(F)cc3)CC1)c(F)c(=O)n2C` [Example 234, 4-(4-(bis(4-fluorophenyl)methyl)piperazin-1-yl)-3-fluoro-1,6-dimethyl-1,5-naphthyridin-2(1H)-one], the IC50 at human DGKα came out at 16 µM; in test [1] (Homo sapiens, Raji), 0.13 µM.

With `COc1ccc(CN2CCN(c3c(C#N)c(=O)n(C)c4ccc(Cl)nc34)CC2)c(O)c1` [Example 301, 6-chloro-4-{4-[(2-hydroxy-4-methoxyphenyl)methyl]piperazin-1-yl}-1-methyl-2-oxo-1,2-dihydro-1,5-naphthyridine-3-carbonitrile], the IC50 on human DGKζ was more than 240 µM.

As for `Cn1c(=O)c(C#N)c(N2CCN(Cc3cccc(Br)c3O)CC2)c2nc(Br)ccc21` [Example 380, 6-bromo-4-{4-[(3-bromo-2-hydroxyphenyl)methyl]piperazin-1-yl}-1-methyl-2-oxo-1,2-dihydro-1,5-naphthyridine-3-carbonitrile], the IC50 at human DGKα is 0.83 µM; at human DGKζ it was more than 240 µM.
